Assay results published in PMC8371461 (Frontiers in Pharmacology, 2021).

Key:
Experiment in all cases: kinome scan
Assay type in all cases: binding
[1] = target: T1, CTK (Homo sapiens, UniProt P42679); settings: 10 µM
T1 construct: purchased DiscoverX (KINOMEscan)

[2] = target: T2, ABL1-nonphosphorylated (Homo sapiens, UniProt P00519); settings: 10 µM
T2 construct: purchased DiscoverX (KINOMEscan)

[3] = target: T3, ROCK2 (Homo sapiens, UniProt O75116); settings: 10 µM
T3 construct: purchased DiscoverX (KINOMEscan)

[4] = target: T4, AURKC (Homo sapiens, UniProt Q9UQB9); settings: 10 µM
T4 construct: purchased DiscoverX (KINOMEscan)
T4 sequence (Q9UQB9 whole entry): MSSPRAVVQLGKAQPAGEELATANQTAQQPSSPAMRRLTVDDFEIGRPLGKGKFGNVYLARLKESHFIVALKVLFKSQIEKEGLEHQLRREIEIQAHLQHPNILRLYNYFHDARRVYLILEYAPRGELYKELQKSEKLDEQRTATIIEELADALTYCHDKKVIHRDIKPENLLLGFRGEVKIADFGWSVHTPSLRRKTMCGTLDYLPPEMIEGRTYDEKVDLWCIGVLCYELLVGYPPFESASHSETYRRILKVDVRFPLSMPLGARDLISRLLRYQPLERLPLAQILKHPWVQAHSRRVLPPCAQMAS

[5] = target: T5, RPS6KA4(Kin.Dom.2-C-terminal) (Homo sapiens, UniProt O75676); settings: 10 µM
T5 construct: RPS6KA4(Kin.Dom.2-C-terminal); purchased DiscoverX (KINOMEscan)
T5 sequence (O75676 411-674 limits assumed): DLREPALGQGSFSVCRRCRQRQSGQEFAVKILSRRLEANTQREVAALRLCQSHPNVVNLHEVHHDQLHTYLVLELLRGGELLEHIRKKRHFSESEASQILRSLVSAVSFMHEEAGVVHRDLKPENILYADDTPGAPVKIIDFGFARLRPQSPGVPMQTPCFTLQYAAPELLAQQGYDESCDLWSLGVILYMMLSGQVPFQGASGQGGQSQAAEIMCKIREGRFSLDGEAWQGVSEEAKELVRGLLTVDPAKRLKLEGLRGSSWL

[6] = target: T6, SgK110 (Homo sapiens, UniProt P0C264); settings: 10 µM
T6 construct: purchased DiscoverX (KINOMEscan)

[7] = target: T7, FLT3(N841I) (Homo sapiens, UniProt P36888, N841I); settings: 10 µM
T7 construct: purchased DiscoverX (KINOMEscan)

[8] = target: T8, ABL1(F317I)-phosphorylated (Homo sapiens, UniProt P00519, F317I); settings: 10 µM
T8 construct: purchased DiscoverX (KINOMEscan)
T8 sequence (P00519 whole entry F317I): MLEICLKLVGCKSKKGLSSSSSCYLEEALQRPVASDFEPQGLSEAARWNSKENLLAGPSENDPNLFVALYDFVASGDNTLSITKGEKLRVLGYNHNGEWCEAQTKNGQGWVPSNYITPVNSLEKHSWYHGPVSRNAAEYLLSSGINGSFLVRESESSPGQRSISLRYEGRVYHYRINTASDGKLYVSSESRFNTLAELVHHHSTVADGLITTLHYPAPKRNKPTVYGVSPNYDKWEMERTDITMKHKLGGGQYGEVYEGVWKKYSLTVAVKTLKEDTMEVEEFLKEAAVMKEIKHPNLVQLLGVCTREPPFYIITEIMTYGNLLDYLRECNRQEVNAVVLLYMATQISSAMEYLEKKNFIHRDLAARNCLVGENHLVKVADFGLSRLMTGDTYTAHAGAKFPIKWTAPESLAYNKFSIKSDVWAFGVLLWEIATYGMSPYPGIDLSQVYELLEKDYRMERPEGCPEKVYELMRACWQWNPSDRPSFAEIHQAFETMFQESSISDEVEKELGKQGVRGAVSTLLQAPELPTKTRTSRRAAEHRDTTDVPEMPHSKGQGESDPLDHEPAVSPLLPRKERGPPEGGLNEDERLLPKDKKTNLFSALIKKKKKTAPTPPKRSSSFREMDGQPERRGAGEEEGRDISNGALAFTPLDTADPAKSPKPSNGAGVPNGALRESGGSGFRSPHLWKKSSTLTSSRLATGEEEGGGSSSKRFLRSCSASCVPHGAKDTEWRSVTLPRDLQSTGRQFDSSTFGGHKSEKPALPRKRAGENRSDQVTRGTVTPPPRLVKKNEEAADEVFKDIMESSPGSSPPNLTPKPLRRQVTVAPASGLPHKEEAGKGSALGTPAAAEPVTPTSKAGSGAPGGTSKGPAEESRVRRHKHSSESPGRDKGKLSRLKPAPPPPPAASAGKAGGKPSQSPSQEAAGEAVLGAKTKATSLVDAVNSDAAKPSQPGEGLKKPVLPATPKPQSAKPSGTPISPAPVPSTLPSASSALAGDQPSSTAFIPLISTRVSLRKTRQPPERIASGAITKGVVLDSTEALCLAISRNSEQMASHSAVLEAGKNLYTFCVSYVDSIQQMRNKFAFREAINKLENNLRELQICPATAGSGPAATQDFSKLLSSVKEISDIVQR

[9] = target: T9, CAMK1D (Homo sapiens, UniProt Q8IU85); settings: 10 µM
T9 construct: purchased DiscoverX (KINOMEscan)

[10] = target: T10, SIK2 (Homo sapiens, UniProt Q9H0K1); settings: 10 µM
T10 construct: purchased DiscoverX (KINOMEscan)

[11] = target: T11, MEK6 (Homo sapiens, UniProt P52564); settings: 10 µM
T11 construct: purchased DiscoverX (KINOMEscan)

[12] = target: T12, DAPK1 (Homo sapiens, UniProt P53355); settings: 10 µM
T12 construct: purchased DiscoverX (KINOMEscan)

[13] = target: T13, NEK3 (Homo sapiens, UniProt P51956); settings: 10 µM
T13 construct: purchased DiscoverX (KINOMEscan)

[14] = target: T14, AKT1 (Homo sapiens, UniProt P31749); settings: 10 µM
T14 construct: purchased DiscoverX (KINOMEscan)

[15] = target: T15, RPS6KA4(Kin.Dom.1-N-terminal) (Homo sapiens, UniProt O75676); settings: 10 µM
T15 construct: RPS6KA4(Kin.Dom.1-N-terminal); purchased DiscoverX (KINOMEscan)

[16] = target: T16, PAK7 (Homo sapiens, UniProt Q9P286); settings: 10 µM
T16 construct: purchased DiscoverX (KINOMEscan)

[17] = target: T17, GAK (Homo sapiens, UniProt O14976)
T17 construct: T7 phage fusion (kinase-tagged phage); purchased DiscoverX; host or cells: BL21-derived E. coli (T7 phage)
T17 sequence (O14976 1-1311): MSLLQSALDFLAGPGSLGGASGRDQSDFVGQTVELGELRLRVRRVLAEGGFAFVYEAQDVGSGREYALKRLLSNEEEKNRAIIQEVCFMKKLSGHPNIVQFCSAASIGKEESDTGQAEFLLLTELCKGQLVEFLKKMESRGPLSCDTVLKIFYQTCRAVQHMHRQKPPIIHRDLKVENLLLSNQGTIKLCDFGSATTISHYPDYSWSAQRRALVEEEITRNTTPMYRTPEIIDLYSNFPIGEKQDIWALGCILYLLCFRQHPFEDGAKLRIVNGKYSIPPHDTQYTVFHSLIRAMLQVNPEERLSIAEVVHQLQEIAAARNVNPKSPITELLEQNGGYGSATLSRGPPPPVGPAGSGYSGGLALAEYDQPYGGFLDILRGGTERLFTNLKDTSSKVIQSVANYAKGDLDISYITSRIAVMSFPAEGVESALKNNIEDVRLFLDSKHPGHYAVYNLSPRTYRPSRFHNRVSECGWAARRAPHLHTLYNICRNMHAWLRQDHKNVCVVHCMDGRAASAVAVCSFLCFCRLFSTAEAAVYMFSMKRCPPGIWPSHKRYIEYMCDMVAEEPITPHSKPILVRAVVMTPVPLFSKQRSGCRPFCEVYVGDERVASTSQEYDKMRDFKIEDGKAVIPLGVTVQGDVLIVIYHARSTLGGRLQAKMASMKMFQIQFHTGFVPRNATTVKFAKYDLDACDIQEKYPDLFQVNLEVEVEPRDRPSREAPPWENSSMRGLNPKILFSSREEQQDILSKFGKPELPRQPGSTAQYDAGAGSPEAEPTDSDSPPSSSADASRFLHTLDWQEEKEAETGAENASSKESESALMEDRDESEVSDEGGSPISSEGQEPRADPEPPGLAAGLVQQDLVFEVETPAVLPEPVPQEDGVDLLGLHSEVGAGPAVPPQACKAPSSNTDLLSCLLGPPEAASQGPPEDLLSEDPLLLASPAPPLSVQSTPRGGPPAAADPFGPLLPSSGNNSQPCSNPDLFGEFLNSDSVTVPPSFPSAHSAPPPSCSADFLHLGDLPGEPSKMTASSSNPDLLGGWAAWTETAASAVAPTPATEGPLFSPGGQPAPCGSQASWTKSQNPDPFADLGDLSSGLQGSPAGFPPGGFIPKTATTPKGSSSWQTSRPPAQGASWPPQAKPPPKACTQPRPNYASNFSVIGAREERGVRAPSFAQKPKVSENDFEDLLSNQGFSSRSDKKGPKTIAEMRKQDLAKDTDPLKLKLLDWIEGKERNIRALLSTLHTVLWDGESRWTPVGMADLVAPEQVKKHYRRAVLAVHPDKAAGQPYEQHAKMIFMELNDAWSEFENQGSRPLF

[18] = target: T18, BRSK1 (Homo sapiens, UniProt Q8TDC3); settings: 10 µM
T18 construct: purchased DiscoverX (KINOMEscan)

[19] = target: T19, BTK (Homo sapiens, UniProt Q06187); settings: 10 µM
T19 construct: purchased DiscoverX (KINOMEscan)

[20] = target: T20, MYO3B (Homo sapiens, UniProt Q8WXR4); settings: 10 µM
T20 construct: purchased DiscoverX (KINOMEscan)

[21] = target: T21, DYRK1B (Homo sapiens, UniProt Q9Y463); settings: 10 µM
T21 construct: purchased DiscoverX (KINOMEscan)
T21 sequence (Q9Y463 whole entry): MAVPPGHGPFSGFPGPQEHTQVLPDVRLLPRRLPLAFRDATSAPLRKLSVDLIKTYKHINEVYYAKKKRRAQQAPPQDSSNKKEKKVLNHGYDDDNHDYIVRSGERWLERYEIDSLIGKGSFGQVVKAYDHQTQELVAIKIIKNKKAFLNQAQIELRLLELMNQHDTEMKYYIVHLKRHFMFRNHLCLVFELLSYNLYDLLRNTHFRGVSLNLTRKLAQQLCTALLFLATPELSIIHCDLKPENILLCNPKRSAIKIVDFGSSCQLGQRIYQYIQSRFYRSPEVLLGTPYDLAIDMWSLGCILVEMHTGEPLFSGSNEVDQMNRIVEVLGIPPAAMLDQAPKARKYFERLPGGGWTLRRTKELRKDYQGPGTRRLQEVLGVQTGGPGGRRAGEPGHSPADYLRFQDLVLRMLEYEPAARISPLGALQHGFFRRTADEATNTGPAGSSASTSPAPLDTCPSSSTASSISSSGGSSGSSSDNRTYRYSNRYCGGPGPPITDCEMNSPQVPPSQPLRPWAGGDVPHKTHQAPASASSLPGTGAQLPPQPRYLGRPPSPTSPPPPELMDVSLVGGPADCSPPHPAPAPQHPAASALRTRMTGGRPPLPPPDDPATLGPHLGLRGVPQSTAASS

[22] = target: T22, PIK3CB (Homo sapiens, UniProt P42338)
T22 construct: purchased DiscoverX (KINOMEscan)
T22 sequence (P42338 whole entry): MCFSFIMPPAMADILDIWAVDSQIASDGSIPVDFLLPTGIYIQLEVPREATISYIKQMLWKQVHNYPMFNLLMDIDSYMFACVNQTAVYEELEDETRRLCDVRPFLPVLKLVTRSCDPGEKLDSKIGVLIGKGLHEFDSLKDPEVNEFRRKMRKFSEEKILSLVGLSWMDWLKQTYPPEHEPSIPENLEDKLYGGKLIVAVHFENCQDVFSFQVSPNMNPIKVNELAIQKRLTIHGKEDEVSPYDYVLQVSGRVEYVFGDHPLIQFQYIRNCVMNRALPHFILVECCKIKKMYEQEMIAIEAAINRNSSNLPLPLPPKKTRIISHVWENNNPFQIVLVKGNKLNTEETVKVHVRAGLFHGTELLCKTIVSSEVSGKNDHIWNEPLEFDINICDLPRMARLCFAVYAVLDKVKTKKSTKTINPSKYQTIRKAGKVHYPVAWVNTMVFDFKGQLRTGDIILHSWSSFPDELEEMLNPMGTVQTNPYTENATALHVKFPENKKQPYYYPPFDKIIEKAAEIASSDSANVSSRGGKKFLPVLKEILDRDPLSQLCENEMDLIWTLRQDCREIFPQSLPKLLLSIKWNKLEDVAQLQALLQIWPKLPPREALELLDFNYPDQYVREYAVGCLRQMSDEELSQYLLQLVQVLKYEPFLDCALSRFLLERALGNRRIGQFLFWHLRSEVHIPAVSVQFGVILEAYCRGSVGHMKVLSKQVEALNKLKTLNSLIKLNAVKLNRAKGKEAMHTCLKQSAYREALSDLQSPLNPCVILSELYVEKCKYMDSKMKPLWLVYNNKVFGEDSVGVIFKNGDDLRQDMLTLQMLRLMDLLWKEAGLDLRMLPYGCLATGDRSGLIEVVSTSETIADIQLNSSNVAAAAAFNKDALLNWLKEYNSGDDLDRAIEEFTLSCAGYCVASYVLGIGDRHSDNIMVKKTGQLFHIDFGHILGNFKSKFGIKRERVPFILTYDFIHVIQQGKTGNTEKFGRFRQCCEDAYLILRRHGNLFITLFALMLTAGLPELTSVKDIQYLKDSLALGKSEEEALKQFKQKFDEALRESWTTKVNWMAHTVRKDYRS

[23] = target: T23, CAMK4 (Homo sapiens, UniProt Q16566); settings: 10 µM
T23 construct: purchased DiscoverX (KINOMEscan)
T23 sequence (Q16566 whole entry): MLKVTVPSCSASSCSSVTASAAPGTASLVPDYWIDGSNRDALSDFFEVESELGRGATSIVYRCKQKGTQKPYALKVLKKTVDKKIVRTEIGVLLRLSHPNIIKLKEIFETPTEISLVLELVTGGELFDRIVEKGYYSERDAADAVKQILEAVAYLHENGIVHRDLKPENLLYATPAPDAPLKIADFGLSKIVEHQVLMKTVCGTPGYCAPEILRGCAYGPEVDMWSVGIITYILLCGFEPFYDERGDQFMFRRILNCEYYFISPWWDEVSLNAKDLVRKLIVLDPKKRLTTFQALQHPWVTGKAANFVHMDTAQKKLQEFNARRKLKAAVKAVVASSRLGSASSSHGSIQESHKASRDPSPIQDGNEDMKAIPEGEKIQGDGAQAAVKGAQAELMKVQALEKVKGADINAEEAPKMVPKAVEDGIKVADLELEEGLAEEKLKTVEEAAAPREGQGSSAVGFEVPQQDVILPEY

[24] = target: T24, TGFBR2 (Homo sapiens, UniProt P37173); settings: 10 µM
T24 construct: purchased DiscoverX (KINOMEscan)
T24 sequence (P37173 23-567): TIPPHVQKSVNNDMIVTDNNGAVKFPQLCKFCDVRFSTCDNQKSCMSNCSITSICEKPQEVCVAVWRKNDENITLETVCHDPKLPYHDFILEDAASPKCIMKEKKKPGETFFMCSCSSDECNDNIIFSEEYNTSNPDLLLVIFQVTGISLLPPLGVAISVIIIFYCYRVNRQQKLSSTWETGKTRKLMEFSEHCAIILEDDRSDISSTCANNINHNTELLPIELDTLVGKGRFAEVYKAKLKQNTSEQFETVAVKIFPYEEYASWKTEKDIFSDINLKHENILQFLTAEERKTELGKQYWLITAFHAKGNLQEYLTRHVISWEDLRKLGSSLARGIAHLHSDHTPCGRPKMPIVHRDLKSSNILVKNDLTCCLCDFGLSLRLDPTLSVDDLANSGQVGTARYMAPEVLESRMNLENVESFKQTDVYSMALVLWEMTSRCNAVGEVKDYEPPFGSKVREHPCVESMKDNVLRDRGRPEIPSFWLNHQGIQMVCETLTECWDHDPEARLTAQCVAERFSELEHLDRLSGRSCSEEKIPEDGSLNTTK

T1 sequence (P42679 whole entry): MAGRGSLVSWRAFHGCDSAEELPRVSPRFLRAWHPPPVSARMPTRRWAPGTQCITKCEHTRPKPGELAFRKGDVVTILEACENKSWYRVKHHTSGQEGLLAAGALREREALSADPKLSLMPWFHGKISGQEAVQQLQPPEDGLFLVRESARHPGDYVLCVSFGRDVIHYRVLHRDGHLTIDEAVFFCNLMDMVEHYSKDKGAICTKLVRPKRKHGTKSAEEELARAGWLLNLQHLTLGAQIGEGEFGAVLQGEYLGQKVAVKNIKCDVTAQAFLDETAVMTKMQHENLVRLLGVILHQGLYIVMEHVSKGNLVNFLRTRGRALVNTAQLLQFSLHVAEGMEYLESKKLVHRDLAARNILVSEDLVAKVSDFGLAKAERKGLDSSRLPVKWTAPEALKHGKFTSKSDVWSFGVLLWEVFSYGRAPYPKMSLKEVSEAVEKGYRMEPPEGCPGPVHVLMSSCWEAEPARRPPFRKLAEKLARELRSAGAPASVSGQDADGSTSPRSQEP
T2 sequence (P00519 whole entry): as the sequence (P00519 whole entry F317I) above, with I317F counted along it

**Q.** Which results are given for `Nc1ccc(N=Nc2ccccc2)c(N)n1` [phenazopyridine, 2,6-diamino-3-(phenylazo)pyridine]?
**A.** kinase inhibition [1]: 98; kinase inhibition [2]: 86; kinase inhibition [3]: 89; kinase inhibition [4]: 68; kinase inhibition [5]: 90; kinase inhibition [6]: 100; remaining binding (% of control) [7]: 46; kinase inhibition [8]: 78; kinase inhibition [9]: 100; kinase inhibition [10]: 92; kinase inhibition [11]: 95; kinase inhibition [12]: 86; kinase inhibition [13]: 100; kinase inhibition [14]: 99; kinase inhibition [15]: 89; kinase inhibition [16]: 100; remaining binding (% of control) ([17]; 10 µM): 16; remaining binding at 10 µM ([17]; read-out: % Of control): 16%; kinase inhibition [18]: 62; kinase inhibition [19]: 100; kinase inhibition [20]: 95; remaining binding (% of control) [21]: 69; remaining binding (% of control) ([22]; 10 µM): 22; remaining binding at 10 µM ([22]; read-out: % Of control): 22%; kinase inhibition [23]: 67; kinase inhibition [24]: 66
